From patent US20080227738A1, “Compositions and methods for cell dedifferentiation and tissue regeneration” (University of Utah Research Foundation, priority 2000, published 2008)

What was measured:
[1] = biological target: T1, epidermal growth factor receptor (Homo sapiens, UniProt P00533); details: mammalian cells; cited from earlier work
T1 construct: host or cells: mammalian cells (not specified)

[2] = test system: zebrafish caudal fin regenerate; assay: Zebrafish caudal fin regeneration under Fgfr1 inhibitor treatment; type: in vivo
Procedure: Zebrafish 3-6 months of age were obtained from EKKWill Waterlife Resources (Gibsonton, Fla.) and used for caudal fin amputations. Fish were anaesthetized in tricaine and amputations were made using a razor blade, removing one-half of the fin. Animals were allowed to regenerate for various times in water kept at 31-33° C.; these temperatures facilitate more rapid regeneration than more commonly used temperatures of 25-28° C. (Johnson and Weston, 1995). Fish were then anaesthetized and the fin regenerate was removed for analyses.
(§1) SU5402 (Ri; SUGEN, South San Francisco, Calif.) was dissolved in dimethylsulfoxide (DMSO) and added to fish water at a final concentration of 1.7 μM or 17 μM (0.01% DMSO). Up to 10 fish were treated in one liter of water, and tanks were maintained in the dark at 31-33° C. with SU5402 solutions replaced every 24 hours.
To determine if signaling through Fgfrl is required for regeneration, zebrafish were treated for 96 hours with Ri immediately following amputation. Treatment of zebrafish with 1.7 μM Ri (0.5 mg/liter) inhibited fin regeneration to varying degrees.
To determine if a blastema forms in the absence of Fgf signaling, Ri-treated fin regenerates were examined morphologically.
Because wfgf and fgfr1 expression domains were maintained in the fin regenerate during outgrowth, and as blastemal cell BrdU incorporation was blocked by Ri, Fgf signaling likely participates in blastemal maintenance/regenerative outgrowth. To test this hypothesis, the effects of Ri on ongoing regenerates were examined.

zebrafish fin regenerate [3] = assay: Whole mount in situ hybridization of marker genes in zebrafish fin regenerates; type: in vivo
Description: To generate antisense RNA probes with a dioxigenin labeling kit (Boehringer Mannheim), a 2.8 kb fgfr1 cDNA fragment, a 1.7 kb fgfr2 cDNA fragment, a 0.6 kb fgfr3 cDNA fragment, a 1.5 kb fgfr4 cDNA fragment (Thisse et al., 1995), a 1.2 kb msxb cDNA fragment, a 2.0 kb msxc cDNA (Akimenko et al., 1995), a 0.6 kb fgf8(ace) cDNA fragment (Reifers et al., 1998), a 2.2 kb fgf4.1 cDNA (Draper et al., 1999), a 2.4 kb wfgf cDNA (Draper et al., 1999), a 3.8 kb β-catenin cDNA (Kelly et al., 1995), a 2.6 kb flkl cDNA fragment (Liao et al., 1997), and a 1.8 kb shh cDNA (Krauss et al., 1993) were used. Fragments containing zebrafish fgfr cDNA sequences were isolated by degenerate PCR using known fgfr tyrosine kinase domain sequences of other species. The assignment of fgfr genes was based on homology comparisons; these sequences have been deposited in Genbank.
Fin regenerates were fixed overnight at 4° C. in 4% paraformaldehyde in phosphate-buffered saline (PBS), washed briefly in 2 changes of PBS, and transferred to methanol for storage at −20° C. Fins were rehydrated stepwise through ethanol in PBS and then washed in 4 changes of PBS-0.1% polyoxyethylenesorbitan monolaurate (Tween-20; PBT). Then, fins were incubated with 10 μg/ml proteinase K in PBT for 30 minutes and rinsed twice in PBT before 20 minutes refixation. After five washes with PBT, fins were prehybridized at 65° C. for one hour in buffer consisting of 50% formamide, 5×SSC (750 mM NaCl, 75 mM sodium citrate, pH 7.0), 0.1% Tween-20, 50 μg/ml heparin, and 500 μg/ml yeast RNA (pH to 6.0 with citric acid), and then hybridized overnight in hybridization buffer including 0.5 μg/ml dioxigenin-labeled RNA probe. Fins were washed at 65° C. for 10 minutes each in 75% hybridization buffer/25% 2×SSC, 50% hybridization buffer/50% 2×SSC, and 25% hybridization buffer/75% 2×SSC, followed by 2 washes for 30 minutes each in 0.2×SSC at 65° C. Further washes for 5 minutes each were done at room temperature in 75% 0.2×SSC/25% PBT, 50% 0.2×SSC/50% PBT, and 25% 0.2×SSC/75% PBT. After a one hour incubation period in PBT with 2 mg/ml bovine serum albumin, fins were incubated for 2 hours in the same solution with a 1:2000 dilution of fin-preabsorbed, anti-dioxigenin antibody coupled to alkaline phosphatase (Boehringer Mannheim). For the alkaline phosphatase reaction, fins were first washed 3 times in reaction buffer (100 mM Tris-HCl pH 9.5, 50 mM MgCl2, 100 mM NaCl, 0.1% Tween-20, 1 mM levamisol) and then incubated in reaction buffer with 1× nitro blue terazolium/5-bromo-4-chloro-3-indolyl-phosphate (NBT/BCIP) substrate. In general, positive signals were obtained in 0.5-3 hours. Following the staining reaction, fins were washed in several changes of PBT and fixed in 4% paraformaldehyde in PBS. To obtain sections of fin regenerates, fins were first mounted in 1.5% agarose/5% sucrose and then incubated in 30% sucrose overnight. Frozen blocks were sectioned at 14 μm and observed using Nomarski optics.
For each probe, at least 7 fins were examined for expression at 0, 6, 12, 18, 24, 48, and 96 hours post-amputation. For 18, 24, and 48 hour timepoints with fgfr1, msxb, msxc, and wfgf probes, 25-100 fins were examined in several different experiments. Experiments with sense strand RNA probes were performed with initial antisense experiments to estimate the specificity of signals. To assess gene expression in pharmacologically treated fins, an equal number of untreated fins were also examined.
To investigate the molecular effects of this outgrowth inhibition by Ri, marker expression was examined following a 24 hour R1 application period. […] Similar effects on msxc expression were observed (n=8). msxb expression was not detected in 24 or 48 hour fin regenerates exposed to R1 for 48 hours (n=18). Thus, Fgf signaling is required for blastema maintenance and regenerative outgrowth, but is not crucial for other processes including melanocyte migration or bone deposition. […]

[4] = Tolerability of inhibitor solution in adult zebrafish; type: in vivo; details: 1.7 μM or 17 μM in fish water, 0.01% DMSO
Procedure: as §1

[5] = biological target: Flkl, a vascular endothelial growth factor receptor (Homo sapiens, UniProt P35968); details: cited from earlier work
zebrafish embryos = assay: Application to developing zebrafish embryos; type: in vivo; details: at the IC50 concentration (printed 10-20 μl)
Procedure: The IC50 of Ri with respect to Fgfrl activity in mammalian cells was shown previously to be […] (Mohammadi et al., 1997). […] Such embryos appear remarkably similar to those injected with mRNA encoding a dominant-negative Fgfrl (Griffin et al., 1995).

C2C12 myotubes = assay: Characterization of RNLE activity: pretreated extract, BrdU S phase reentry in C2C12 myotubes; type: cell-based, mouse; details: C2C12 myotubes with RNLE
Procedure: C2C12 myotubes were plated at low density in DM as described above. Regeneration extract was treated in one of three ways: (1) boiled for 5 minutes; (2) digested with 1% trypsin for 30 minutes at 37° C.; or (3) taken through several freeze/thaw cycles. In three separate experiments, the treated extracts were applied to cultured myotubes at a concentration of 0.3 mg/ml with media and extract changed daily. Immediately after the extract was digested with 1% trypsin, the trypsin was inactivated by dilution in DM in which the cells were cultured. In the freeze/thaw experiments, extract activity was tested after both 2 and 3 freeze/thaw cycles. The effect of the pretreated extracts on myotube S phase reentry was assessed after 4 days of treatment by performing BrdU incorporation assays. The results were compared to BrdU incorporation in myotubes cultured in DM containing RNLE (positive control) and myotubes cultured in DM alone or DM containing nonRNLE (negative controls).
The dedifferentiation signal(s) found in the RNLE could belong to a number of different types of biomolecules, including proteins, lipids, nucleic acids, and polysaccharides. To characterize the nature of one or more of the active components of the RNLE, the inventors subjected the extract to a number of different conditions. […]

serine threonine kinases = details: cited from earlier work
insulin receptor = biological target: T2, insulin receptor (Homo sapiens, UniProt P06213); details: mammalian cells; cited from earlier work
T2 construct: host or cells: mammalian cells (not specified)

zebrafish fin regenerate [6] = assay: BrdU incorporation in regenerating zebrafish fins; type: in vivo; details: 17 μM
Procedure: BrdU was dissolved in PBS and fish were treated at a final concentration of 100 μg/ml. For one experiment, fins were amputated and allowed to regenerate for 18 or 24 hours in the absence or presence of 17 μM Ri, with BrdU present during the final 6 hours of regeneration. To test the effects of Ri on proliferation in the established blastema, fins were first allowed to regenerate for 40 hours. Then, untreated fish regenerated an additional 2 hours before a 6 hour incubation with BrdU, while Ri-treated fish underwent a 2 hour R1 preincubation period before a 6 hour period with both Ri and BrdU.
Fins were collected and fixed in 70% ethanol/2 mM glycine overnight, and 10 μm sections were made from frozen blocks. These sections were stained for BrdU incorporation using a detection kit (Roche; Basel, Switzerland), and counterstained with hematoxylin. Sections from untreated and Ri-treated fins were simultaneously processed and developed. […]
BrdU incorporation was used to analyze DNA replication and cellular proliferation. […] To determine if blastemal cells underwent DNA replication in the presence of Ri, BrdU incorporation in fins briefly treated with Ri during regenerative outgrowth (40-48 hours postamputation) was analyzed. […]

[7] = test system: platelet-derived growth factor receptor; details: mammalian cells; cited from earlier work
[8] = 1.7 μM (0.5 mg/liter), 96 hours from amputation, of 10 fins examined
[9] = Ri-treated fin regenerates, morphology
[10] = fins regenerated normally 24 or 48 hours, then 24 hour application, of 18 treated fins
[11] = treated from amputation, msxb: 21 fins, msxc: 8 fins

T1 sequence (P00533 25-1210): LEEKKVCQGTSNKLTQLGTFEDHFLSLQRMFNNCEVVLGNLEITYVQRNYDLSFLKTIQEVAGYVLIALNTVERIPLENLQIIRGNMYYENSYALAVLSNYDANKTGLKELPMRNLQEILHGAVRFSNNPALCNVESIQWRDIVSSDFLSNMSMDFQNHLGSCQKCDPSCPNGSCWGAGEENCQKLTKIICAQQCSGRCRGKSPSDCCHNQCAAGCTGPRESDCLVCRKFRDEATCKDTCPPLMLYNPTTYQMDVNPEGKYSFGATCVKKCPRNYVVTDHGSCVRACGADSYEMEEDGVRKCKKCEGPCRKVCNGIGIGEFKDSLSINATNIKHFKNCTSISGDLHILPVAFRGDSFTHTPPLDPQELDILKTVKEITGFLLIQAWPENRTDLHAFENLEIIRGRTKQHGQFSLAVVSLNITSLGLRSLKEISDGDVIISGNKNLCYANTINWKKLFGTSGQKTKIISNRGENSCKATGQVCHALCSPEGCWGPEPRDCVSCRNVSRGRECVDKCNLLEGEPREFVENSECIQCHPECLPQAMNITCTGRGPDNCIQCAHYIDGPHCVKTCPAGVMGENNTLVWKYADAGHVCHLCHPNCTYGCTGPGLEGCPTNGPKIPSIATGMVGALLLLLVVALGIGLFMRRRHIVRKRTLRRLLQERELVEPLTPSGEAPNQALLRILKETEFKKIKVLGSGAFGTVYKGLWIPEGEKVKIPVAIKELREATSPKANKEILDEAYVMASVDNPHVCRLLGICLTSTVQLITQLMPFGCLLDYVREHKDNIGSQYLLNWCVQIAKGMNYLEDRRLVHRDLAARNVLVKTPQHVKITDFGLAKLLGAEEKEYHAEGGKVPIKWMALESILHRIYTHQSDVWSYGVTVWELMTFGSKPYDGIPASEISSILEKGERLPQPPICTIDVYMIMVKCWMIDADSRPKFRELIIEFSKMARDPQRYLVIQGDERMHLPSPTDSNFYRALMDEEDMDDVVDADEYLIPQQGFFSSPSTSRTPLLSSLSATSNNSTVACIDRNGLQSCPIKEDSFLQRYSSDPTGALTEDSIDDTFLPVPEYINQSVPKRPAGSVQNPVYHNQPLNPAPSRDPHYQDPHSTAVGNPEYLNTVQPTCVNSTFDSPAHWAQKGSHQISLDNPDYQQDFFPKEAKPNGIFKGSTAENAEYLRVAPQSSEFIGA
Sequence of Flkl, a vascular endothelial growth factor receptor (P35968 20-1356): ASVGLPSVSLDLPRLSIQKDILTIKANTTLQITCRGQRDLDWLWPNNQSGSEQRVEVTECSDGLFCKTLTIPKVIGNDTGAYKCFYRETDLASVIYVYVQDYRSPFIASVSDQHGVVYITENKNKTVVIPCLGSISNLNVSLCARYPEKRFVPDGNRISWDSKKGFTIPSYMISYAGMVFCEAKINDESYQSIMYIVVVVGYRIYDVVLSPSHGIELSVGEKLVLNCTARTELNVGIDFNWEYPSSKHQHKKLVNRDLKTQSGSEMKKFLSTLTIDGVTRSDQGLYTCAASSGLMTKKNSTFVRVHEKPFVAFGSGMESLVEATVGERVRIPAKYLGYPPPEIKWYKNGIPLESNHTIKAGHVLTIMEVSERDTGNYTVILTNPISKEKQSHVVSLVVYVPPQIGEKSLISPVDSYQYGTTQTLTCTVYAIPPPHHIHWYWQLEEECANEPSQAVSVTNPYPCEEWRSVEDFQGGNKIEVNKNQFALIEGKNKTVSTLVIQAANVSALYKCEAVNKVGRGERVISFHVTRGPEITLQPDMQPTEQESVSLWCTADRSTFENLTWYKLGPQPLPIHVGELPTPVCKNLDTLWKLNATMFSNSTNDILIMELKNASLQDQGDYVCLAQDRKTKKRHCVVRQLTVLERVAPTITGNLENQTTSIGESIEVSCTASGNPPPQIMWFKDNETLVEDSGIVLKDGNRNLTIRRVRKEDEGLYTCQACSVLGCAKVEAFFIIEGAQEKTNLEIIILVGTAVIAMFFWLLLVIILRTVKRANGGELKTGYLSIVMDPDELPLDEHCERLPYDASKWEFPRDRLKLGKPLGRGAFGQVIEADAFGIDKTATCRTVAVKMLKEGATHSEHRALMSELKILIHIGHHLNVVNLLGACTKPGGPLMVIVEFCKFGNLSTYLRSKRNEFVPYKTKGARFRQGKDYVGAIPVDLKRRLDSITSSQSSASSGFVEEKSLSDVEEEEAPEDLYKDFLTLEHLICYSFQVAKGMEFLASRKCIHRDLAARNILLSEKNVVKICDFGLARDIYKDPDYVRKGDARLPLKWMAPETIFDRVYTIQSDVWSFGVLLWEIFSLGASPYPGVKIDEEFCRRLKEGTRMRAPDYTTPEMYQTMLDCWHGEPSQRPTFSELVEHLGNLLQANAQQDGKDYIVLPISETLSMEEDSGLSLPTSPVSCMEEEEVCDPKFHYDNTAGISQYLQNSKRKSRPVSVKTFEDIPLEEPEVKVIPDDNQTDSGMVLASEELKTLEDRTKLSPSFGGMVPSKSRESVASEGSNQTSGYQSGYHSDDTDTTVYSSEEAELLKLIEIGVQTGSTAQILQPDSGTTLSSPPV
T2 sequence (P06213 28-1382): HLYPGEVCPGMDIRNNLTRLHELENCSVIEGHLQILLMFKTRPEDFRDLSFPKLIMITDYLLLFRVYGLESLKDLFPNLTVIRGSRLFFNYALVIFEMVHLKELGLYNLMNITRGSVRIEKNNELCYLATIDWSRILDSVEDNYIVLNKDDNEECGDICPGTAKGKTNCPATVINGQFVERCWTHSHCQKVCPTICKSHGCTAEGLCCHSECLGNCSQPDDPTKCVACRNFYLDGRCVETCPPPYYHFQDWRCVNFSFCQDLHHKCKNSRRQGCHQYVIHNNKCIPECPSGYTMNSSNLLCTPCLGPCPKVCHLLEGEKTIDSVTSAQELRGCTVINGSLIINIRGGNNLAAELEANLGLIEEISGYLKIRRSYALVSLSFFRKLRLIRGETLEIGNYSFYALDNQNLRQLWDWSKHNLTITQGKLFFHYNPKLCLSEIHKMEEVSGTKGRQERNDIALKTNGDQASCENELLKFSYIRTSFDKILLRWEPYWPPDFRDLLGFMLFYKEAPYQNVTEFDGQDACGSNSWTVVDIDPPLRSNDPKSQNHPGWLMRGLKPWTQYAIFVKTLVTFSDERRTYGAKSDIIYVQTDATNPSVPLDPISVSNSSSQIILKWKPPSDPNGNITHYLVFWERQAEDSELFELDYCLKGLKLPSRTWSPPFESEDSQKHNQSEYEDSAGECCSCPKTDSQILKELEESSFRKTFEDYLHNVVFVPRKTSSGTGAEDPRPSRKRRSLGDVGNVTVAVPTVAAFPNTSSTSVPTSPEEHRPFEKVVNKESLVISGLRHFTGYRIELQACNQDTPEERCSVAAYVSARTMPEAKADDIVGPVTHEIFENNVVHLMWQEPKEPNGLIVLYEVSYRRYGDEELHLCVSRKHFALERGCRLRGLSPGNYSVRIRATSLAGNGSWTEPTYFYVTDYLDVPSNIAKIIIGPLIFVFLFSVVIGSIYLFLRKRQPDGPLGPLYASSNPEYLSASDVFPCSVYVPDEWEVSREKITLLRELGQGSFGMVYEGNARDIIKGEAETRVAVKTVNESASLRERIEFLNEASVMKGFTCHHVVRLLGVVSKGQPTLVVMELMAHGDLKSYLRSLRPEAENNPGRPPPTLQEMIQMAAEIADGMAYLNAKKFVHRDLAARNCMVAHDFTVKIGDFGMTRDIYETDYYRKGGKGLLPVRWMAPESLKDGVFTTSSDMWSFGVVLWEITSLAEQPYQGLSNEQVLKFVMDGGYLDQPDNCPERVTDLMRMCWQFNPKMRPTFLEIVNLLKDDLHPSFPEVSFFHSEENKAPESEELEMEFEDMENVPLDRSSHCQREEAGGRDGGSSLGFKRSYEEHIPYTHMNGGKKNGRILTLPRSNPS

Cc1c[nH]c(/C=C2\C(=O)Nc3ccccc32)c1CCC(=O)O [SU5402]
Concentration at which epidermal growth factor receptor is not blocked [1]: greater than 50 μM
Fins that regenerated normally [2, 8]: 4
Fins with a regenerative block [2, 8]: one
Fins with slight regenerative defects [2, 8]: 5
Fin regeneration ([2]; 17 μM (5 mg/liter), 96 hours from amputation, all animals, n=9): complete regenerative blocks
Blastemal morphogenesis [2, 9]: did not occur
Wound epidermis over the fin stumps [2, 9]: consistently formed
Outgrowth of ongoing regenerates ([2]; treatment of 24-72 hour fin regenerates): inhibited further outgrowth
New bone deposition ([2]; treatment of ongoing fin regenerates): not interrupted
msxb expression after 48 hour exposure (zebrafish fin regenerate [3]; 24 or 48 hour fin regenerates exposed for 48 hours, n=18): not detected
Fins with detectable shh transcripts (zebrafish fin regenerate [3]; 48 or 72 hour fin regenerates treated for 24 hours, of 18 fins): 0
Epidermal wfgf expression (zebrafish fin regenerate [3]; 48 or 72 hour regenerates, 24 hour application, n=16): No significant reduction
β-catenin expression (zebrafish fin regenerate [3]; Ri-treated fins, n=7): normal
Fins with low levels of msxb expression (zebrafish fin regenerate [3]; [10]): 8
Fins with no detectable msxb expression (zebrafish fin regenerate [3]; [10]): 10
msxb and msxc expression, 24 hour regenerates (zebrafish fin regenerate [3]; [11]): extremely low or undetectable
msxb and msxc expression, 48 hour regenerates (zebrafish fin regenerate [3]; [11]): undetectable
Survival and behavior in inhibitor solution [4]: survived normally and demonstrated no unusual behavior
Concentration that inhibits Flkl [5]: 10 to 20 µM
Effect on developing zebrafish embryos (zebrafish embryos): dramatic truncation of posterior structures
BrdU: effect of Fgfr inhibitor on RNLE S phase reentry (C2C12 myotubes): No effect
Effects on activities of numerous serine threonine kinases (serine threonine kinases): no effects
Concentration at which insulin receptor is not blocked (insulin receptor): greater than 50 μM
Proximal mesenchymal cell BrdU labeling (zebrafish fin regenerate [6]; 12-18 hours and 18-24 hours postamputation): Normal
Blastemal cell incorporation of BrdU (zebrafish fin regenerate [6]; brief treatment during regenerative outgrowth, 40-48 hours postamputation): greatly reduced
Concentration at which platelet-derived growth factor receptor is not blocked [7]: greater than 50 μM
